Read-outs that look alike come from different tables or passages of the source.
How the values were obtained:
EphA4 Fc = EphA4 Fc (Mus musculus, UniProt Q03137); assay: ELISA: inhibition of ephrin-A5 AP binding to immobilized EphA4 Fc
[1] = target: EphA4 ligand-binding domain (Homo sapiens, UniProt P54764); assay: 1H NMR of compound with increasing EphA4 ligand-binding domain; conditions: 10 mM phosphate buffer, pH 6.5; unmodified compound
EphA2 [2] = target: T1, EphA2 (Homo sapiens, UniProt P29317); assay type: cell-based
[3] = target: EphA4 AP binding to ephrin-A and ephrin-B ligands (Homo sapiens, UniProt P54764); conditions: ref [37]; cited from earlier work
Eph receptors = conditions: ref [36]; cited from earlier work
HUVE cells [4] = assay: MTT assay, HUVE cell viability; assay type: cell-based; conditions: 200 μM
EphA7 = assay: ELISA: ephrin-A5 AP binding to immobilized EphA7 Fc
EphB2 [5] = assay: ELISA: ephrin-B2 AP binding to immobilized EphB2 Fc
[6] = Stability of compound in DMSO, followed by ELISA IC50; assay type: physicochemical; conditions: DMSO at ≤ 10 mM, room temperature, after 4 days
EphA4 = EphA4 (Mus musculus, UniProt Q03137); assay: Ephrin-induced EphA4 tyrosine phosphorylation in HT22 neuronal cells; assay type: cell-based; conditions: ephrin-A5 Fc
EphB3 = assay: ELISA: ephrin-B2 AP binding to immobilized EphB3 Fc
EphA3 = assay: ELISA: ephrin-A5 AP binding to immobilized EphA3 Fc
EphA2 [7] = system: EphA2
PC3 cells = assay: PC3 cell retraction assay; assay type: cell-based
HUVE cells [8] = assay: Capillary-like tube formation of HUVECs on Matrigel; assay type: cell-based; conditions: 18 hours
EphB1 = assay: ELISA: ephrin-B2 AP binding to immobilized EphB1 Fc
EphA6 = assay: ELISA: ephrin-A5 AP binding to immobilized EphA6 Fc
EphA2 [9] = target: T1, EphA2; assay: TNFα-induced EphA2 tyrosine phosphorylation in HUVE cells; assay type: cell-based; conditions: 20 nM TNFα, 2 hours
EphB4 = assay: ELISA: ephrin-B2 AP binding to immobilized EphB4 Fc
EphB2 [10] = assay: Ephrin-B2 Fc-induced EphB2 tyrosine phosphorylation in COS cells; assay type: cell-based
EphA2 [11] = assay: Ephrin-A1 Fc-induced EphA2 tyrosine phosphorylation in COS cells; assay type: cell-based
EphA5 = assay: ELISA: ephrin-A5 AP binding to immobilized EphA5 Fc
EphB6 = assay: ELISA: ephrin-B2 AP binding to immobilized EphB6 Fc

T1 sequence (P29317 24-976): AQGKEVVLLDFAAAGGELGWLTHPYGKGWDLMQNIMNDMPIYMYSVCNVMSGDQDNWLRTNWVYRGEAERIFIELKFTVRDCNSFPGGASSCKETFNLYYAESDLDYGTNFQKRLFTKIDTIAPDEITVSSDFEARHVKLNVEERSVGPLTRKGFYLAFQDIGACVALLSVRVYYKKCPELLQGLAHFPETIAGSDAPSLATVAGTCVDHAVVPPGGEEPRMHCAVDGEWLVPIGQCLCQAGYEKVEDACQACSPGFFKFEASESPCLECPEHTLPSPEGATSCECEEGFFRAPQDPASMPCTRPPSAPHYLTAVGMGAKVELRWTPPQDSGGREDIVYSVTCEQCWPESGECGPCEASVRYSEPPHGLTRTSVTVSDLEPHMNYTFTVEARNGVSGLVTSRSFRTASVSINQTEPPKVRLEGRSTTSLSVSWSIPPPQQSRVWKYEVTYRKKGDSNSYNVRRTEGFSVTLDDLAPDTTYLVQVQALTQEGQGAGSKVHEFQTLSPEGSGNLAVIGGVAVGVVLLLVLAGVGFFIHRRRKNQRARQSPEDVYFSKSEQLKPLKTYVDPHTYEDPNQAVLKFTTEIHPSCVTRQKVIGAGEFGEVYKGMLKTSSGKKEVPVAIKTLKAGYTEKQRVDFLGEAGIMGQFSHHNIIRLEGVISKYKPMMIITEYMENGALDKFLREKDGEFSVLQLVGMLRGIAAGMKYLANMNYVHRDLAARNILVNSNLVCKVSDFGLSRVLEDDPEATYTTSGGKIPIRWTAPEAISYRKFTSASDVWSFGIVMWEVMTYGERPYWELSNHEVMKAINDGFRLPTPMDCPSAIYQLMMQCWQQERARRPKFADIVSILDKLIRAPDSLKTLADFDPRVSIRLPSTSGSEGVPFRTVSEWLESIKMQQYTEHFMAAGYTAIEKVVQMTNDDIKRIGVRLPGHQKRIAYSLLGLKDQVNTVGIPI
EphA4 Fc, sequence (Q03137 20-547): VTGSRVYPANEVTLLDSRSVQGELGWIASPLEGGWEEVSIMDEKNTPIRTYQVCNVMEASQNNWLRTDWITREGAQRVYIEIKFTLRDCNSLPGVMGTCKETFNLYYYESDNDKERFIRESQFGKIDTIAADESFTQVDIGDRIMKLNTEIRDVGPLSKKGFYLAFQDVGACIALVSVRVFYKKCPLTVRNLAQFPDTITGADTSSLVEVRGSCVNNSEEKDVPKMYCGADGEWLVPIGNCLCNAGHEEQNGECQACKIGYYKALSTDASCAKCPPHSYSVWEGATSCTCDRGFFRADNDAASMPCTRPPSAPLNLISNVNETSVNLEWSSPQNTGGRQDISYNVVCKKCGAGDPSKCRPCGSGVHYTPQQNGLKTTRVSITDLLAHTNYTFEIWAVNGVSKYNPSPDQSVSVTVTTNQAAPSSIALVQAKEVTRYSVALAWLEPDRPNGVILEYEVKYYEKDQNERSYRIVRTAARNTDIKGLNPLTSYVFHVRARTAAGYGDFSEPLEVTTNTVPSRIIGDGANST
EphA4 AP binding to ephrin-A and ephrin-B ligands, sequence (P54764 30-209 limits assumed): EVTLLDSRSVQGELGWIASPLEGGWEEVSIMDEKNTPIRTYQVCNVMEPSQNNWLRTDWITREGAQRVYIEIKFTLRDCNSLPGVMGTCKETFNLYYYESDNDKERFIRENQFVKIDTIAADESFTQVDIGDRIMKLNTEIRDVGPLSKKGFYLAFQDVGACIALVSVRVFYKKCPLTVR
EphA4 ligand-binding domain, sequence (P54764 28-208): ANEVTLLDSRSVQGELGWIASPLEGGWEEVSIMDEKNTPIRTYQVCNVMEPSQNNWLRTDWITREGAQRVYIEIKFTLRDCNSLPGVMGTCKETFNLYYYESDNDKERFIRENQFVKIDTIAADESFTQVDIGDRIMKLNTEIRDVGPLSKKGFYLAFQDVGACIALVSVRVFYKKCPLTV
EphA4, sequence (Q03137 20-986): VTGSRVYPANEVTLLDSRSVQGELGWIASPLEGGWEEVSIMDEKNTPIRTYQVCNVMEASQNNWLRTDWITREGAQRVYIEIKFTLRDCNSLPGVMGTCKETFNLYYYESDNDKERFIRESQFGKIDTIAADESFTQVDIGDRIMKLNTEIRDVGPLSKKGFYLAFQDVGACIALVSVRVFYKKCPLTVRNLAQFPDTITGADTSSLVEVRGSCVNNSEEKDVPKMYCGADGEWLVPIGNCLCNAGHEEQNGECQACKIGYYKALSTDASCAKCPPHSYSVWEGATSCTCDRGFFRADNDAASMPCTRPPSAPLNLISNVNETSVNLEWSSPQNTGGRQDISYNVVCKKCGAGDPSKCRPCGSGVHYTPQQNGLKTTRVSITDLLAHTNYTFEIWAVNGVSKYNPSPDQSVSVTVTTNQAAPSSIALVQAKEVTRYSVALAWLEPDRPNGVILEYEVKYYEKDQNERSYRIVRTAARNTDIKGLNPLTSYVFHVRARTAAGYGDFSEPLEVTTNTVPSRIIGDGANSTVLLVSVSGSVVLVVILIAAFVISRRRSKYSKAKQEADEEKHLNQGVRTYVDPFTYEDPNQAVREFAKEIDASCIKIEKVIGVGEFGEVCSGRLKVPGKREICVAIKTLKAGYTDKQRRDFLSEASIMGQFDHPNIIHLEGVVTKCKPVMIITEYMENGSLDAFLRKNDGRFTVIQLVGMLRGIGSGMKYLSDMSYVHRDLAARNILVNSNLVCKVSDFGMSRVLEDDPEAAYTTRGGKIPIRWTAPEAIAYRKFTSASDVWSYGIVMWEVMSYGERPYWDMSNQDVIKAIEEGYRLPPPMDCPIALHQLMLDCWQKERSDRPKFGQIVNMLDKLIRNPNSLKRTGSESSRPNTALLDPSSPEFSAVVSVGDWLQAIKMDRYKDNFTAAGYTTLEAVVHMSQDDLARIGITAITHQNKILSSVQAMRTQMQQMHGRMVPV

## O=Cc1ccc(-c2ccc(O)c(C(=O)O)c2)o1 [Compound 76B8, 5-(5-formylfuran-2-yl)-2-hydroxybenzoic acid]
EphA4 Fc
  Inhibitory activity on ephrin-A5 AP binding to EphA4 Fc: did not show detectable inhibitory activity

## Cc1ccc(C)n1-c1ccc(C(=O)O)c(O)c1 [Compound 1, reference compound]
[1]
  Binding to EphA4 (resonance peak shifts of compound protons): some, albeit weak, ability to bind to EphA4
EphA2 [2]; newly synthesized preparation, PC3 cells
  Inhibition of EphA2 phosphorylation in cells stimulated with ephrin-A1 Fc: did not show detectable inhibition
EphA2 [2]; purchased preparation, PC3 cells
  Inhibition of EphA2 phosphorylation in cells stimulated with ephrin-A1 Fc: activity comparable to that previously reported
[3]
  Inhibition of EphA4 AP binding to ephrin-A4 and ephrin-B2: do not efficiently inhibit
EphA4 Fc; dry form exposed to air at room temperature
  Change of activity in ephrin-A5-EphA4 ELISA on storage: becomes progressively more active
EphA4 Fc; newly synthesized preparation
  Inhibition of ephrin-A5 AP binding to EphA4 Fc: did not show detectable inhibition
EphA4 Fc; purchased preparation
  Inhibition of ephrin-A5 AP binding to EphA4 Fc: activity comparable to that previously reported

## Cc1ccc(C)n1-c1ccc(O)c(C(=O)O)c1 [Compound 2]
[3]
  Inhibition of EphA4 AP binding to ephrin-A4 and ephrin-B2: do not efficiently inhibit

## C[C@H](CCC(=O)O)[C@H]1CC[C@H]2[C@@H]3CC[C@@H]4C[C@H](O)CC[C@]4(C)[C@H]3CC[C@]12C [lithocholic acid]
Eph receptors
  Inhibition of Eph receptors: inhibit with similar low potency all Eph receptors examined

## O=C(/C=C/c1ccc(-c2ccc(O)c(C(=O)O)c2)o1)/C=C/c1ccc(-c2ccc(O)c(C(=O)O)c2)o1 [Compound 76D10]
HUVE cells [4]; three days
  HUVE cell viability (MTT): minimally affected
HUVE cells [4]; up to one day
  HUVE cell viability (MTT): not affected
EphA7
  Inhibition of ephrin-A5 binding to EphA7: inhibits with substantial potency
EphB2 [5]
  Inhibition of ephrin binding to EphB2: much lower to undetectable inhibitory activity
[6]
  Increase in IC50 values on storage in DMSO: 10 fold
EphA4
  Inhibition of EphA4 tyrosine phosphorylation: inhibits EphA4 tyrosine phosphorylation
EphB3
  Inhibition of ephrin binding to EphB3: much lower to undetectable inhibitory activity
EphA2 [2]; 0.1 mg/mL BSA, COS and PC3 cells
  Effect of BSA in culture medium on compound activity: inhibited the activity
EphA2 [2]; PC3 cells, ephrin-A1 Fc
  Inhibition of EphA2 tyrosine phosphorylation: inhibits tyrosine phosphorylation
EphA3
  Inhibition of ephrin binding to EphA3: much lower to undetectable inhibitory activity
EphA2 [7]
  Selectivity among EphA and EphB receptors examined: preferentially inhibits
PC3 cells
  Effect on cell morphology in the absence of ephrin: does not affect cell morphology
PC3 cells; 25 μM
  Reversal of the effect of ephrin-A1 on cell area: partially
PC3 cells; 50 μM
  Reversal of the effect of ephrin-A1 on cell area: partially
PC3 cells; 100 μM
  Reversal of the effect of ephrin-A1 on cell area: reverted completely
PC3 cells; concentrations between 25 and 100 μM
  Inhibition of ephrin-A1 Fc-induced cell retraction: significantly counteracts these effects
HUVE cells [8]
  Inhibition of capillary-like tube formation: inhibits capillary-like tube formation
EphB1
  Inhibition of ephrin binding to EphB1: much lower to undetectable inhibitory activity
EphA6
  Inhibition of ephrin-A5 binding to EphA6: inhibits with substantial potency
EphA2 [9]
  Inhibition of EphA2 tyrosine phosphorylation in response to TNFα: inhibits EphA2 tyrosine phosphorylation
EphB4
  Inhibition of ephrin-B2 binding to EphB4: inhibits with substantial potency
EphB2 [10]
  Inhibition of EphB2 tyrosine phosphorylation: not EphB2 tyrosine phosphorylation
EphA2 [11]
  Inhibition of EphA2 tyrosine phosphorylation: inhibits tyrosine phosphorylation
EphA4 Fc
  Selectivity among EphA and EphB receptors examined: preferentially inhibits
  Time to binding equilibrium after addition of ephrin-A5 AP with compound: ≤ 3 h
EphA4 Fc; 0.1 mg/ml BSA
  Inhibitory activity in the presence of BSA: lost
EphA4 Fc; 0.1 mg/ml collagen
  Inhibitory activity in the presence of collagen: not affected
EphA4 Fc; 3 hour incubation, wash, 24 hours in binding buffer
  Reversibility of binding to EphA4 in ELISA: does not appear to be reversible
EphA4 Fc; increasing 76D10 concentrations
  Mode of inhibition (Bmax and KD of ephrin-A5 AP binding curves): consistent with competitive inhibition
EphA5
  Inhibition of ephrin-A5 binding to EphA5: inhibits with substantial potency
EphB6
  Inhibition of ephrin-B2 binding to EphB6: inhibits with substantial potency

## COC(=O)/C=C/c1ccc(-c2ccc(O)c(C(=O)OC)c2)o1 [Compound 76A5, (E)-methyl 2-hydroxy-5-(5-(3-methoxy-3-oxoprop-1-en-1-yl)furan-2-yl)benzoate]
EphA4 Fc
  Inhibitory activity on ephrin-A5 AP binding to EphA4 Fc: did not show detectable inhibitory activity

— article PMC3196665 (Chemical biology & drug design, 2011)
